{"source": "PubChem BioAssay AID743334", "about": "(Broad Institute, 2014)", "note": "Active and inactive are the calls of the source.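 Rule for the calls: active = curve reaches 40% rise within the top valid dose, in every run; inconclusive = runs give conflicting calls; inactive = opposite-direction activity, or every run inactive.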"}
{"test": "ATP change in C2C12 myotubes without statin, dose response, counter-screen for statin myotoxicity suppressor project, cell-based, no simvastatin, luminescence, dry powder (AID 743334)", "settings": "C2C12 myotubes ATP, CellTiter-Glo luminescence, 48 h; at 18 µM (top of the series)"}
{"smiles": "C[C@H](CO)N1C[C@H](C)[C@H](CN(C)Cc2ccc3c(c2)OCO3)Oc2ccc(NC(=O)CCCCCC(=O)Nc3ccccc3N)cc2CC1=O", "ATP level change, positive = increase": "12% (inactive)"}
{"test": "ATP change in C2C12 myotubes without statin, dose response, counter-screen for statin myotoxicity suppressor project, cell-based, no simvastatin, luminescence, dry powder (AID 743334)", "settings": "C2C12 myotubes ATP, CellTiter-Glo luminescence, 48 h; at 19.5 µM (top of the series)"}
{"smiles": "Cc1ccc(S(=O)(=O)Nc2ccc3c(c2)CC(=O)N([C@@H](C)CO)C[C@@H](C)[C@H](CN(C)Cc2ccc(-c4ccccc4)cc2)O3)cc1", "ATP level change, positive = increase": "-0.559% (inactive)"}
{"smiles": "C[C@@H]1CN([C@H](C)CO)C(=O)Cc2cc(NC(=O)C3CCCCC3)ccc2O[C@H]1CN(C)Cc1ccc(Cl)c(Cl)c1", "ATP level change, positive = increase": "15.1% (inactive)"}
{"smiles": "C[C@@H]1CN([C@@H](C)CO)C(=O)c2cccc(NC(=O)Nc3ccc4c(c3)OCO4)c2O[C@H]1CN(C)Cc1ccc(C(=O)Nc2ccccc2N)cc1", "ATP level change, positive = increase": "16.4% (inactive)"}
{"smiles": "C[C@H]1CN([C@@H](C)CO)S(=O)(=O)c2ccc(C#Cc3ccc(F)cc3)cc2O[C@@H]1CN(C)S(=O)(=O)c1cn(C)cn1", "ATP level change, positive = increase": "6.04% (inactive)"}
{"smiles": "C[C@H]1CN([C@@H](C)CO)C(=O)c2cc(N(C)C)ccc2O[C@@H]1CN(C)Cc1ccc(C(=O)Nc2ccccc2N)cc1", "ATP level change, positive = increase": "3.03% (inactive)"}
{"smiles": "Cc1ccc(S(=O)(=O)N(C)C[C@@H]2Oc3ccc(NS(=O)(=O)c4ccc(Cl)cc4)cc3C(=O)N([C@H](C)CO)C[C@@H]2C)cc1", "ATP level change, positive = increase": "-0.772% (inactive)"}
{"smiles": "C[C@@H]1CN([C@H](C)CO)C(=O)Cc2cc(NS(=O)(=O)c3cn(C)cn3)ccc2O[C@@H]1CN(C)Cc1ccc(Cl)c(Cl)c1", "ATP level change, positive = increase": "9.79% (inactive)"}
{"smiles": "COc1ccc(S(=O)(=O)Nc2cccc3c2O[C@H](CN(C)C(=O)Nc2ccc(F)cc2)[C@H](C)CN([C@@H](C)CO)C3=O)cc1", "ATP level change, positive = increase": "14.4% (inactive)"}
{"smiles": "N#C[C@@H]1[C@@H](c2ccc(-c3ccc(F)cc3)cc2)[C@H](CO)N1C(=O)Cc1ccccc1", "ATP level change, positive = increase": "2.91% (inactive)"}
{"smiles": "C[C@@H]1CN([C@@H](C)CO)C(=O)c2cc(NS(=O)(=O)c3ccc(Cl)cc3)ccc2O[C@H]1CN(C)C(=O)Nc1cccc2ccccc12", "ATP level change, positive = increase": "6.56% (inactive)"}
{"test": "ATP change in C2C12 myotubes without statin, dose response, counter-screen for statin myotoxicity suppressor project, cell-based, no simvastatin, luminescence, dry powder (AID 743334)", "settings": "C2C12 myotubes ATP, CellTiter-Glo luminescence, 48 h; at 21 µM (top of the series)"}
{"smiles": "CC(C)CC#Cc1cnc2c(c1)C(=O)N([C@H](C)CO)C[C@H](C)[C@@H](CN(C)C(=O)Cc1ccccc1)O2", "ATP level change, positive = increase": "6.23% (inactive)"}
{"smiles": "Cc1noc(C)c1S(=O)(=O)Nc1ccc2c(c1)CC(=O)N([C@H](C)CO)C[C@@H](C)[C@@H](CN(C)Cc1ccc(-c3ccccc3)cc1)O2", "ATP level change, positive = increase": "10.4% (inactive)"}
{"test": "ATP change in C2C12 myotubes without statin, dose response, counter-screen for statin myotoxicity suppressor project, cell-based, no simvastatin, luminescence, dry powder (AID 743334)", "settings": "C2C12 myotubes ATP, CellTiter-Glo luminescence, 48 h; stronger effect = higher value"}
{"smiles": "C[C@H](CO)N1C[C@H](C)[C@H](CN(C)Cc2ccc(C(=O)Nc3ccccc3N)cc2)Oc2ccc(NC(=O)Nc3ccc(F)cc3)cc2CC1=O", "max activity": "-33.9% (inactive)"}
{"smiles": "N#C[C@H]1[C@@H](c2ccc(-c3cccc(F)c3)cc2)[C@H](CO)N1C(=O)NC1CCCC1", "max activity": "9.12% (inactive)"}
{"smiles": "N#C[C@@H]1[C@@H](c2ccccc2)[C@H](CO)N1S(=O)(=O)c1ccc(-c2ccccc2)cc1", "max activity": "-5.62% (inactive)"}
{"smiles": "CCCC#Cc1ccc([C@H]2[C@@H](C#N)N(S(=O)(=O)c3cccc(F)c3)[C@H]2CO)cc1", "max activity": "3.4% (inactive)"}
{"smiles": "C[C@@H]1CN([C@H](C)CO)C(=O)c2cccc(NC(=O)Nc3ccc4c(c3)OCO4)c2O[C@H]1CN(C)Cc1ccc(C(=O)Nc2ccccc2N)cc1", "max activity": "-9.22% (inactive)"}
{"smiles": "C/C=C/c1ccc([C@H]2[C@@H](CO)N(C(=O)NC3CCCC3)[C@H]2C#N)cc1", "max activity": "-3.18% (inactive)"}
{"smiles": "N#C[C@@H]1[C@@H](c2ccc(C#CC3CCCC3)cc2)[C@H](CO)N1S(=O)(=O)c1ccccc1", "max activity": "-8.85% (inactive)"}
{"smiles": "C[C@@H]1CN([C@H](C)CO)C(=O)c2cc(NC(=O)Cc3cn(C)c4ccccc34)ccc2O[C@@H]1CN(C)Cc1ccc(C(=O)Nc2ccccc2N)cc1", "max activity": "-0.539% (inactive)"}
{"smiles": "COCC(=O)N1[C@H](C#N)[C@@H](c2ccc(-c3cccc(F)c3)cc2)[C@@H]1CO", "max activity": "6.18% (inactive)"}
{"smiles": "CCCNC(=O)N1[C@H](C#N)[C@@H](c2ccc(C3=CCCCC3)cc2)[C@@H]1CO", "max activity": "-7.65% (inactive)"}
{"smiles": "C[C@@H]1CN([C@@H](C)CO)C(=O)c2cc(NC(=O)Cc3cn(C)c4ccccc34)ccc2O[C@@H]1CN(C)Cc1ccc(C(=O)Nc2ccccc2N)cc1", "max activity": "14.1% (inactive)"}
{"smiles": "O=C(C[C@H]1CC[C@@H]2[C@H](COC[C@H](O)CN2CCC(F)(F)F)O1)NCc1ccc(Oc2ccccc2)cc1", "max activity": "9.67% (inactive)"}
{"smiles": "COc1ccc(C#Cc2cnc3c(c2)C(=O)N([C@H](C)CO)C[C@H](C)[C@@H](CN(C)C(=O)Nc2cccc(OC)c2)O3)cc1", "max activity": "8% (inactive)"}
{"smiles": "N#C[C@H]1[C@H](c2ccc(C#CCC3CCCC3)cc2)[C@@H](CO)N1C(=O)CN1CCOCC1", "max activity": "-19% (inactive)"}
{"smiles": "N#C[C@@H]1[C@@H](c2ccc(-c3cccc(F)c3)cc2)[C@H](CO)N1C(=O)c1cccnc1", "max activity": "6.17% (inactive)"}
{"smiles": "C[C@@H]1CN([C@H](C)CO)C(=O)c2cccc(NC(=O)c3nc4ccccc4s3)c2O[C@@H]1CN(C)Cc1ccc(C(=O)Nc2ccccc2N)cc1", "max activity": "-20.8% (inactive)"}
{"smiles": "C[C@H]1CN([C@@H](C)CO)C(=O)Cc2cc(NS(=O)(=O)c3ccc(Cl)cc3)ccc2O[C@@H]1CN(C)CC1CCCCC1", "max activity": "4.91% (inactive)"}
{"smiles": "N#C[C@H]1N[C@@H](CO)[C@@H]1c1ccc(-c2cccc(F)c2)cc1", "max activity": "7.67% (inactive)"}
{"smiles": "C[C@@H]1CN([C@H](C)CO)C(=O)c2cc(NC(=O)Nc3cccc4ccccc34)ccc2O[C@@H]1CN(C)Cc1ccc(C(=O)Nc2ccccc2N)cc1", "max activity": "13.3% (inactive)"}
{"smiles": "CN1C(=O)c2cc(NC(=O)c3ccc(F)c(F)c3)ccc2OC[C@H]2O[C@@H](CC(=O)Nc3ccc4c(c3)COC4)CC[C@@H]21", "max activity": "12.6% (inactive)"}
{"smiles": "C[C@H](CO)N1C[C@H](C)[C@H](CN(C)Cc2ccc(C(=O)Nc3ccccc3N)cc2)Oc2ccc(NC(=O)Nc3cccc4ccccc34)cc2CC1=O", "max activity": "-21.1% (inactive)"}
{"smiles": "C[C@@H]1CN([C@H](C)CO)C(=O)Cc2cc(NC(=O)CCCCCC(=O)Nc3ccccc3N)ccc2O[C@@H]1CN(C)Cc1ccc(Oc2ccccc2)cc1", "max activity": "-23.3% (inactive)"}
{"smiles": "C[C@H](CO)N1C[C@H](C)[C@H](CN(C)Cc2ccc(C(=O)Nc3ccccc3N)cc2)Oc2ccc(N(C)C)cc2C1=O", "max activity": "-24.5% (inactive)"}
{"smiles": "C[C@H]1CN([C@@H](C)CO)C(=O)c2cc(NC(=O)Cc3cn(C)c4ccccc34)ccc2O[C@H]1CN(C)Cc1ccc(C(=O)Nc2ccccc2N)cc1", "max activity": "5.76% (inactive)"}
{"smiles": "C[C@@H]1CN([C@H](C)CO)C(=O)Cc2cc(NC(=O)CCCCCC(=O)Nc3ccccc3N)ccc2O[C@H]1CN(C)Cc1ccc(Oc2ccccc2)cc1", "max activity": "-0.786% (inactive)"}
{"smiles": "C[C@H]1CN([C@@H](C)CO)C(=O)Cc2cc(NC(=O)CCCCCC(=O)Nc3ccccc3N)ccc2O[C@@H]1CN(C)Cc1ccc(Oc2ccccc2)cc1", "max activity": "-15.5% (inactive)"}
{"smiles": "CC(C)=CCC/C(C)=C/CC/C(C)=C/CC/C(C)=C/CO", "max activity": "1.13% (inactive)"}
{"smiles": "CCS(=O)(=O)N1[C@H](C#N)[C@@H](c2ccc(-c3cccc(F)c3)cc2)[C@@H]1CO", "max activity": "-8.9% (inactive)"}
{"smiles": "N#C[C@H]1[C@H](c2ccc(-c3cccc(F)c3)cc2)[C@H](CO)N1C(=O)NC1CCCC1", "max activity": "-7.45% (inactive)"}
{"smiles": "C[C@H]1CN([C@@H](C)CO)C(=O)Cc2cc(NC(=O)Nc3cccc4ccccc34)ccc2O[C@H]1CN(C)Cc1ccc(C(=O)Nc2ccccc2N)cc1", "max activity": "10.8% (inactive)"}
{"smiles": "N#C[C@@H]1[C@@H](c2ccccc2-c2cccc(F)c2)[C@H](CO)N1C(=O)NC1CCCC1", "max activity": "11.6% (inactive)"}
{"smiles": "N#C[C@@H]1[C@@H](c2ccc(C3=CCCCC3)cc2)[C@H](CO)N1C(=O)NC1CCCC1", "max activity": "-9.58% (inactive)"}
{"smiles": "C[C@@H]1CN([C@H](C)CO)C(=O)c2cc(NC(=O)Cc3cn(C)c4ccccc34)ccc2O[C@H]1CN(C)Cc1ccc(C(=O)Nc2ccccc2N)cc1", "max activity": "9.28% (inactive)"}
{"smiles": "C[C@H]1CN([C@@H](C)CO)S(=O)(=O)c2ccc(C#CC3CC3)cc2O[C@H]1CN(C)C(=O)Nc1cc(F)ccc1F", "max activity": "-12.1% (inactive)"}
{"smiles": "C[C@H](CO)N1C[C@H](C)[C@H](CN(C)Cc2ccc(C(=O)Nc3ccccc3N)cc2)Oc2ccc(NC(=O)Cc3cn(C)c4ccccc34)cc2C1=O", "max activity": "12.2% (inactive)"}
{"smiles": "C[C@@H]1CN([C@@H](C)CO)C(=O)Cc2cc(NC(=O)CCCCCC(=O)Nc3ccccc3N)ccc2O[C@@H]1CN(C)Cc1ccc(Oc2ccccc2)cc1", "max activity": "-25.1% (inactive)"}
{"smiles": "O=C(C[C@H]1CC[C@@H]2[C@H](COC[C@@H](O)CN2Cc2ccc(Oc3ccccc3)cc2)O1)N1CCCCC1", "max activity": "14% (inactive)"}
{"smiles": "N#C[C@H]1[C@@H](c2ccc(-c3cccc(F)c3)cc2)[C@@H](CO)N1C(=O)NC1CCCC1", "max activity": "-0.663% (inactive)"}
{"smiles": "CN(C)C(=O)c1cccc(-c2ccc([C@@H]3[C@@H](C#N)N(C(=O)C4CCCC4)[C@@H]3CO)cc2)c1", "max activity": "-5.88% (inactive)"}
{"smiles": "C[C@@H]1CN([C@@H](C)CO)C(=O)c2cc(NC(=O)Cc3cn(C)c4ccccc34)ccc2O[C@H]1CN(C)Cc1ccc(C(=O)Nc2ccccc2N)cc1", "max activity": "-0.192% (inactive)"}
{"smiles": "N#C[C@@H]1[C@@H](c2ccc(C#Cc3cccnc3)cc2)[C@@H](CO)N1C(=O)C1CCCC1", "max activity": "-10.7% (inactive)"}
{"smiles": "C[C@H]1CN([C@@H](C)CO)C(=O)Cc2cc(NC(=O)CCCCCC(=O)Nc3ccccc3N)ccc2O[C@H]1CN(C)CC1CCCCC1", "max activity": "11.1% (inactive)"}
{"smiles": "N#C[C@@H]1[C@@H](c2ccc(-c3cccc(F)c3)cc2)[C@@H](CO)N1C(=O)NC1CCCC1", "max activity": "2.16% (inactive)"}
{"smiles": "CCCNC(=O)N1[C@@H](C#N)[C@@H](c2ccc(-c3ccccc3F)cc2)[C@@H]1CO", "max activity": "6.49% (inactive)"}
{"smiles": "COc1ccc(-c2ccc([C@@H]3[C@@H](C#N)N(C(=O)NC4CCCC4)[C@H]3CO)cc2)cc1", "max activity": "5.47% (inactive)"}
{"smiles": "C[C@H](CO)N1C[C@H](C)[C@H](CN(C)Cc2ccc(C(=O)Nc3ccccc3N)cc2)Oc2ccc(NC(=O)Nc3cccc4ccccc34)cc2C1=O", "max activity": "-0.211% (inactive)"}
{"smiles": "N#C[C@H]1[C@H](c2ccc(C#Cc3ccc(F)cc3)cc2)[C@H](CO)N1c1nc(-c2ccccc2)cs1", "max activity": "9.97% (inactive)"}
{"smiles": "N#C[C@@H]1[C@H](c2ccc(-c3cccc(F)c3)cc2)[C@H](CO)N1C(=O)NC1CCCC1", "max activity": "-18.6% (inactive)"}
